Drawing on the supplement of paper PMC10307832, this text covers relative viability for one cell line.

Common to all, as to experiment: relative viability (nuclei count vs DMSO), 5 days (fraction); higher = more cells survive
Compound in the assay “VE-821 + Pictilisib”: CS(=O)(=O)c1ccc(-c2cnc(N)c(C(=O)Nc3ccccc3)n2)cc1 [VE-821] + CS(=O)(=O)N1CCN(Cc2cc3nc(-c4cccc5[nH]ncc45)nc(N4CCOCC4)c3s2)CC1 [Pictilisib] (partner 1 µM)
In a few lines:
(§1)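 Lung cancer cell lines were pin-tool dosed in 1536-well plates on the day after seeding, with either a lone drug or a fixed anchor-drug dose plus five library-drug doses (not always all listed) in √10 steps. Nuclei were counted on 4× images after 5 days. Relative viability is the ratio of treated-well to vehicle-well nuclei counts, with each value a median of duplicate plates.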

Compound in the assay “Vismodegib + Tozasertib”: CS(=O)(=O)c1ccc(C(=O)Nc2ccc(Cl)c(-c3ccccn3)c2)c(Cl)c1 [Vismodegib] + Cc1cc(Nc2cc(N3CCN(C)CC3)nc(Sc3ccc(NC(=O)C4CC4)cc3)n2)n[nH]1 [Tozasertib] (partner 0.1 µM)
An outline of the steps:
as §1

Compound in the assay “Ruxolitinib + Trametinib”: N#CC[C@H](C1CCCC1)n1cc(-c2ncnc3[nH]ccc23)cn1 [Ruxolitinib] + CC(=O)Nc1cccc(-n2c(=O)n(C3CC3)c(=O)c3c(Nc4ccc(I)cc4F)n(C)c(=O)c(C)c32)c1 [Trametinib] (partner 0.02 µM)
An outline of the steps: as §1

Compound in the assay “Ruxolitinib + Decitabine”: N#CC[C@H](C1CCCC1)n1cc(-c2ncnc3[nH]ccc23)cn1 [Ruxolitinib] + Nc1ncn([C@H]2C[C@H](O)[C@@H](CO)O2)c(=O)n1 [Decitabine] (partner 2 µM)
An outline of the steps:
as §1

Turning to UMC-11, the relative viability was 0.933 with VE-821 + Pictilisib (first compound 0.08 µM); 0.781 with VE-821 + Pictilisib (first compound 0.253 µM); 0.613 in the assay with VE-821 + Pictilisib (first compound 0.8 µM); 0.84 in the assay with VE-821 + Pictilisib (first compound 2.53 µM); 0.4 with VE-821 + Pictilisib (first compound 8 µM); 0.184 with Vismodegib + Tozasertib (first compound 0.08 µM). The relative viability worked out at 0.196 in the assay with Vismodegib + Tozasertib (first compound 0.253 µM); 0.168 in the assay with Vismodegib + Tozasertib (first compound 0.8 µM); 0.194 in the assay with Vismodegib + Tozasertib (first compound 2.53 µM); 0.225 with Vismodegib + Tozasertib (first compound 8 µM); 0.823 with Ruxolitinib + Trametinib (first compound 0.08 µM); 0.703 with Ruxolitinib + Trametinib (first compound 0.253 µM). Besides, the relative viability in the assay with Ruxolitinib + Trametinib (first compound 0.8 µM) was determined as 0.872; in the assay with Ruxolitinib + Trametinib (first compound 2.53 µM) it was 1.03; in the assay with Ruxolitinib + Trametinib (first compound 8 µM), 0.653; with Ruxolitinib + Decitabine (first compound 0.08 µM), 0.745; in the assay with Ruxolitinib + Decitabine (first compound 0.253 µM) it was 0.62; in the assay with Ruxolitinib + Decitabine (first compound 0.8 µM) it was 0.797. Also, the relative viability was found to be 0.433 with Ruxolitinib + Decitabine (first compound 2.53 µM) and 0.627 in the assay with Ruxolitinib + Decitabine (first compound 8 µM).
